# Data from patent US20210186924A1, “COMPOSITION FOR PROMOTING URIC ACID EXCRETION, COMPOSITION FOR INHIBITING URAT1 AND COMPOSITION FOR LOWERING BLOOD URIC ACID LEVEL” (SUNTORY HOLDINGS LIMITED, priority 2018, published 2021).
# Tests used:
# human URAT1 = biological target: T1, human URAT1 (Homo sapiens, UniProt Q96S37); assay: URAT1 inhibition: 14C-uric acid uptake in MDCK2 cells stably expressing human URAT1; assay type: cell-based; details: for IC50: read-out: IC50 (test substance concentration at which URAT1 was inhibited 50%) (converted); for URAT1 inhibition rate (result in words, FIGS. 1 to 4): test substance 1 to 200 μg/mL, uric acid uptake vs DMSO control
# T1 construct: expressed in transfected cells
# T1 sequence (Q96S37 1-553): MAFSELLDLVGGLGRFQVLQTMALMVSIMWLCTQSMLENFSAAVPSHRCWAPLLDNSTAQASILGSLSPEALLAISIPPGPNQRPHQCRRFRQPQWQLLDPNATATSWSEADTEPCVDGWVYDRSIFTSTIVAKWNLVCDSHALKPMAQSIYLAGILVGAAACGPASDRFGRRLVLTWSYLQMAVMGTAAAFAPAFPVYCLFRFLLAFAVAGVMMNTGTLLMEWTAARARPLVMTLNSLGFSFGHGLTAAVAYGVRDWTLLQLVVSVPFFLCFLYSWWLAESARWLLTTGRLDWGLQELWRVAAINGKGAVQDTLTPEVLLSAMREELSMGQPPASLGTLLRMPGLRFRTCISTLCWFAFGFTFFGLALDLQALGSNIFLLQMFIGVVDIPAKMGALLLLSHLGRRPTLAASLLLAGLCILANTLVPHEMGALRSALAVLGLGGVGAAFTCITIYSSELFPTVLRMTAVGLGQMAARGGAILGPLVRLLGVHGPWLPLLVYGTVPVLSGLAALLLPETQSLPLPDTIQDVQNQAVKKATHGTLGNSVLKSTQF
# Procedure: Each test substance was dissolved in dimethyl sulfoxide (DMSO) and added to HBSS to give a test substance concentration of 1, 5, 10, 15, 20, 40, 60, 80, 100, or 200 μg/mL. […] Uric acid was added to HBSS to give a concentration of 20 μM. Subsequently, the cells were washed again with HBSS, and then dissolved in a 0.1 N sodium hydroxide aqueous solution. The radiation dose of 14 C in the solution was measured by a liquid scintillation counter, and the uptake amount of uric acid into the cells was measured. A positive control was provided by adding benzbromarone at 30 μM. A test substance non-addition group as a control was provided by adding only DMSO to HBSS (DMSO concentration: 1%). The tests were performed with n=3 for the control and for the test substances at each concentration. […] The uptake amount of uric acid was determined with an average of n=3. The calculation formula of the URAT1 inhibition rate (%) is as follows. The control group is the test substance non-addition group.
# Inhibition rate (%)=100×{((uptake amount of uric acid in control group)−(uptake amount of uric acid in test substance addition group))/uptake amount of uric acid in control group}
# [1] = high temperature of 100° C.; cited from earlier work
# [2] = MDCK2 cells expressing human URAT1, 14C-uric acid 20 μM, 10 minutes, n=3
Structure (SMILES),IC50 (human URAT1; [2]) [µM],"URAT1 inhibition rate (result in words, FIGS. 1 to 4) (human URAT1)",IC50 (test substance concentration at which URAT1 was inhibited 50%) (human URAT1; [2]) [µg/mL],Thermal stability [1],"inhibition at 30 µM (human URAT1; MDCK2, read-out: URAT1 inhibition rate) [%]"
"O=C1C[C@@H](c2ccc(O)c(O)c2)Oc2cc(O)cc(O)c21 [Eriodictyol, eriodictyol]",43.5,significant increase in the inhibition rate,–,–,–
"COc1ccc([C@@H]2CC(=O)c3c(O)cc(O[C@@H]4O[C@H](CO[C@@H]5O[C@@H](C)[C@H](O)[C@@H](O)[C@H]5O)[C@@H](O)[C@H](O)[C@H]4O)cc3O2)cc1O [Hesperidin, hesperidin]",–,significant increase in the inhibition rate,16.97,–,–
"COc1cc(O)c(CC=C(C)C)c2c1C(=O)CC(c1ccc(O)cc1)O2 (centres unmarked) [Isoxanthohumol, isoxanthohumol]",25.1,significant increase in the inhibition rate,–,stable even at a high temperature of 100 °C,–
"O=C1C[C@@H](c2ccc(O)cc2)Oc2cc(O)cc(O)c21 [Naringenin, naringenin]",41.9,significant increase in the inhibition rate,–,–,–
"CCc1oc2ccccc2c1C(=O)c1cc(Br)c(O)c(Br)c1 [benzbromarone, reference compound]",–,–,–,–,99 to 100
"COc1cc(O)c(CC=C(C)C)c(O)c1C(=O)/C=C/c1ccc(O)cc1 [xanthohumol, reference compound]",–,did not show a significant increase in the inhibition rate,–,–,–
